Measurements from publication PMC3041267 (Angewandte Chemie (International ed. in English), 2009).

Tested on: HDAC activity in HeLa cell nuclear extracts
Type: biochemical
Conditions: read-out: IC50, inhibition of HDAC activity in HeLa cell nuclear extracts; preliminary assessment, fluorescence assay

CCC(=O)CCCCC[C@@H]1NC(=O)[C@H]2CCCCN2C(=O)[C@H]([C@@H](C)CC)NC(=O)[C@H](Cc2cn(OC)c3ccccc23)NC1=O [apicidin]
IC50: ≤ 100 nM
